Assay results: patent publication US7598234B2, “Steroid derived antibiotics” (Brigham Young University, priority 1998, dated 2009)
Values after ≈ are worked out from the molar mass of the structure shown. Values belong to the compound of their own block, whether it stands above or below them.

Experiments:
[1] = tested on: E. coli (ATCC 10798); test: Sensitization to erythromycin (concentration lowering the MIC of erythromycin), E. coli (ATCC 10798); type: cell-based, Escherichia coli; details: Table 2, E. coli (ATCC 10798)
Method: (§1) Alternatively, “fractional inhibitory concentration (FIC)” is also useful for determination of synergy between the compounds of the invention, or the compounds in combination with known antibiotics. FICs can be performed by checkerboard titrations of compounds in one dimension of a microtiter plate, and of antibiotics in the other dimension, for example. The FIC is calculated by looking at the impact of one antibiotic on the MIC of the other and vice versa. […] Preferably, an FIC of less than 0.5 is obtained for synergism. As used herein, FIC can be determined as follows:
(§2) Aliquots of 1 mL of the suspension were added to test tubes containing 1 mL TSB and incrementally varied concentrations of cholic acid derivatives and/or erythromycin or novobiocin. In the sensitization experiments, erythromycin or novobiocin were added 15 minutes later than the cholic acid derivatives. The samples were subjected to stationary incubation at 37° C. for 24 hours. Sample turbidity was determined by measuring absorption at 760 nm (HP 8453 UV-Visible Chemstation, Hewlett Packard). Additionally, an alliquot from each of the samples showing no measurable turbidity was subcultured on TSA plates (alliquots were diluted to provide fewer than 300 CFU). Colonies that grew on the subculture after overnight incubation were counted and the number of CFU/mL in the samples were calculated. The calculated values were compared to the number of CFU/mL in the original inoculum.
(§3) Ability to permeabilize outer membrane: Compounds 11, 106, and 108-114 (FIG. 1) were tested for antibiotic activity. They were also tested for the ability to permeabilize the outer membrane of Gram-negative bacteria, causing sensitization to hydrophobic antibiotics that cannot cross the outer membrane. The permeabilization of the outer membrane was measured using erythromycin and novobiocin.
(§4) The MICs of erythromycin and novobiocin against E. coli (ATCC 10798) at 70 and >500 μg/mL were measured.

[2] = tested on: E. coli (ATCC 10798); test: MIC and MBC measurement with E. coli (ATCC 10798); type: cell-based, Escherichia coli; details: Table 1; E. coli (ATCC 10798)
From the text: (§5) General: Microorganisms. Reference strains were purchased from the American Type Culture Collection (Rockville, Md.) or Bactrol disks from Difeo Laboratories (Detroit, Mich.). The following specific ATCC strains were used: 10798 Escherichia coli, 25922 Escherichia coli, 13883 Klebsiella pneumoniae, 27853 Pseudomonas aeruginosa, 14028 Salmonella typhimurium, 29212 Enterococcus faecalis, 25923 Staphylococcus aureus, 19615 Streptococcus pyogenes, and 90028 Candida albicans. Bacterial strains were maintained on Mueller-Hinton agar plates, and Candida albicans was maintained on Sabouraud Dextrose agar plates.
(§6) Tryptic soy broth (TSB) was made by dissolving 27.5 grams of tryptic soy broth without dextrose (DIFCO Laboratories) in 1 liter of deionized water and sterilizing at 121° C. for 15 minutes. Solid agar (TSA) plates were made by dissolving 6.4 grams of tryptic soy broth and 12 grams of agar (purified grade, Fischer Scientific) in 800 mL of deionized water and sterilizing at 121° C. for 20 minutes. Aliquots (20 mL) of the homogeneous solution were then poured in sterile plastic petri dishes (100×15 mm, Fisher Scientific). Solutions of compounds were made by dissolving the HCl salt of the respective compound into an appropriate amount of deionized and sterilized water followed by microfiltration.
as §2

[3] = tested on: Gram-negative bacteria; test: Sensitization to novobiocin, ester and amide side chain compounds (Table 14); type: cell-based; details: strain not given
Method: as §2, §3
(§7) Ester and amide side chains: Additional compounds, for example, compounds with amide and ester side chains, were tested.

[4] = tested on: Gram-negative bacteria; test: Sensitization to erythromycin, ester and amide side chain compounds (Table 14); type: cell-based; details: Table 14; strain not given
Method: as §2, §3, §7

[5] = tested on: Gram-negative bacteria; test: MIC of ester and amide side chain compounds (Table 14); type: cell-based; details: strain not given
Method: as §2, §7

[6] = tested on: Pseudomonas aeruginosa (ATCC 27853); test: MIC and MBC measurement with Pseudomonas aeruginosa (ATCC 27853); type: cell-based
From the text: as §5, §6, §2

[7] = tested on: Staphylococcus aureus ATCC 25923; test: MIC and MBC measurement with Staphylococcus aureus ATCC 25923; type: cell-based; details: Table 10; Staphylococcus aureus ATCC 25923
From the text: as §5, §6
as §2, with “inoculum. […]” for “inoculum.”

[8] = tested on: Pseudomonas aeruginosa (ATCC 27853); test: Sensitization to erythromycin, Pseudomonas aeruginosa (ATCC 27853); type: cell-based
Method: as §1
as §2, with “inoculum. […]” for “inoculum.”
(§8) To measure permeabilization, the FIC values for compounds 1, 2, 5, 106, 10, 112, 133, and 134 with erythromycin, novobiocin, and rifampicin were determined. Concentrations of 0.5, 1.0 or 3.0 μg/mL of these antibiotics were used, and the concentrations of the cholic acid derivatives required to inhibit bacterial growth of Gram-negative strains were determined.

[9] = tested on: Enterococcus faecalis ATCC 29212; test: MIC and MBC measurement with Enterococcus faecalis ATCC 29212; type: cell-based; details: Table 10
From the text: as §5, §6, §2

[10] = tested on: Klebsiella pneumonia ATCC 13883; test: MIC and MBC measurement with Klebsiella pneumoniae ATCC 13883; type: cell-based; details: Table 10
From the text: as §5, §6, §2

[11] = tested on: Salmonella typhimurium ATCC 14028; test: MIC and MBC measurement with Salmonella typhimurium ATCC 14028; type: cell-based; details: Table 10
From the text: as §5, §6, §2

[12] = Method: (§9) Minimum inhibition concentrations (MIC) and minimum hemolytic concentrations (MHC) were measured as described in Li et al., Antimicrob. Agents. Chemother., 1999, 43, 1347.
[13] = tested on: Pseudomonas aeruginosa (ATCC 27853); test: Sensitization to novobiocin, Pseudomonas aeruginosa (ATCC 27853); type: cell-based; details: Table 8; P. aureginosa (ATCC 27853)
Method: as §1
as §2, with “inoculum. […]” for “inoculum.”
as §8

[14] = tested on: Candida albicans ATCC 90028; test: MIC and MBC measurement with Candida albicans ATCC 90028; type: cell-based; details: Table 10
From the text: as §5, §6, §2

[15] = tested on: Streptococcus pyrogenes ATCC 19615; test: MIC and MBC measurement with Streptococcus pyogenes ATCC 19615; type: cell-based; details: Table 10
From the text: as §5, §6, §2

[16] = tested on: E. coli (ATCC 10798); test: Sensitization to novobiocin (concentration lowering the MIC of novobiocin), E. coli (ATCC 10798); type: cell-based, Escherichia coli; details: Table 3, E. coli (ATCC 10798)
Method: as §1, §2, §3, §4

[17] = tested on: E. coli (ATCC 25922); test: Sensitization to erythromycin, E. coli (ATCC 25922); type: cell-based, Escherichia coli
Method: FICs can be performed by checkerboard titrations of compounds in one dimension of a microtiter plate, and of antibiotics in the other dimension, for example. The FIC is calculated by looking at the impact of one antibiotic on the MIC of the other and vice versa. […] Preferably, an FIC of less than 0.5 is obtained for synergism. As used herein, FIC can be determined as follows:
as §2
Concentrations of 0.5, 1.0 or 3.0 μg/mL of these antibiotics were used, and the concentrations of the cholic acid derivatives required to inhibit bacterial growth of Gram-negative strains were determined.
as §9

[18] = tested on: E. coli (ATCC 25922); test: MIC and MBC measurement with E. coli (ATCC 25922); type: cell-based, Escherichia coli
From the text: as §5, §6
as §2, with “inoculum. […]” for “inoculum.”

[19] = Table 6, P. aureginosa (ATCC 27853)
[20] = Table 10, Pseudomonas aeruginosa ATCC 27853
[21] = Table 10, Escherichia coli ATCC 25922

Compound: C[C@H](CCCN(C)Cc1ccccc1)[C@H]1CC[C@H]2[C@@H]3[C@H](OC(=O)CN)C[C@@H]4C[C@H](OC(=O)CN)CC[C@]4(C)[C@H]3C[C@H](OC(=O)CN)[C@]12C.Cl.Cl.Cl.Cl [Compound 6]
MIC: concentration required to lower the MIC of erythromycin from 70 μg/mL to 1 μg/mL [1]: 22 µg/mL
MIC [2]: 65 µg/mL
b: concentration of cholic acid derivatives required to lower MIC of novobiocin to 1 μg/ML [3]: 40 µg/mL
a: concentration of cholic acid derivatives required to lower MIC of erythromycin to 1 μg/ML [4]: 15 µg/mL
MIC [5]: 85 µg/mL

MIC [6, 19]: 6 µg/mL (≈ 7.55 µM)
MIC [6, 20]: 5.9 µg/mL (≈ 7.42 µM)
MIC [2]: 2 µg/mL (≈ 2.52 µM)
MIC [7]: 0.6 µg/mL (≈ 0.755 µM)
MIC [9]: 2.2 µg/mL (≈ 2.77 µM)
MIC [10]: 3.0 µg/mL (≈ 3.77 µM)
MIC [11]: 2.2 µg/mL (≈ 2.77 µM)
MHC [12]: 26 µg/mL
MIC [14]: 11 µg/mL (≈ 13.8 µM)
MIC [15]: 2.0 µg/mL (≈ 2.52 µM)
MIC ([18]; Table 4, E. coli (ATCC 25922)): 2 µg/mL (≈ 2.52 µM)
MIC [18, 21]: 1.4 µg/mL (≈ 1.76 µM)
Compound: C[C@H](CCCN(C)Cc1ccccc1)[C@H]1CC[C@H]2[C@@H]3[C@H](OCCCNC(=N)N)C[C@@H]4C[C@H](OCCCNC(=N)N)CC[C@]4(C)[C@H]3C[C@H](OCCCNC(=N)N)[C@]12C [Compound 5]
MBC [6, 19]: 15 µg/mL (≈ 18.9 µM)
MBC [6, 20]: 9.9 µg/mL (≈ 12.5 µM)
MIC: concentration required to lower the MIC of erythromycin from 70 μg/mL to 1 μg/mL [1]: 1 µg/mL
MBC (with erythromycin) ([1]; erythromycin sensitization): 3 µg/mL
MBC [2]: 4 µg/mL (≈ 5.03 µM)
MBC [7]: 3.2 µg/mL (≈ 4.02 µM)
MIC: concentration required to lower the MIC of erythromycin from 240 μg/mL to 5 μg/mL ([8]; Table 7, P. aureginosa (ATCC 27853)): 3 µg/mL
MBC (with erythromycin) ([8]; Table 7, P. aureginosa (ATCC 27853), erythromycin sensitization): 10 µg/mL
FIC ([8]; Table 11, Pseudomonas aeruginosa ATCC 27853, erythromycin (by order)): 0.42
concentration required to inhibit bacterial growth with antibiotic ([8]; Table 11, Pseudomonas aeruginosa ATCC 27853, erythromycin (by order) at 0.5, 1.0 or 3.0 μg/mL): 2.3 µg/mL
MBC [9]: 16 µg/mL (≈ 20.1 µM)
MBC [10]: 6.7 µg/mL (≈ 8.43 µM)
MBC [11]: 3.8 µg/mL (≈ 4.78 µM)
MIC: concentration required to lower the MIC of novobiocin from >500 μg/mL to 1 μg/mL [13]: 6 µg/mL
MBC [14]: 50 µg/mL (≈ 62.9 µM)
MBC [15]: 2.1 µg/mL (≈ 2.64 µM)
MIC: concentration required to lower the MIC of novobiocin from >500 μg/mL to 1 μg/mL [16]: 2 µg/mL
MBC (with novobiocin) ([16]; novobiocin sensitization): 4 µg/mL
MIC: concentration required to lower the MIC of erythromycin from 60 μg/mL to 1 μg/mL ([17]; Table 5, E. coli (ATCC 25922)): 1.5 µg/mL
MBC (with erythromycin) ([17]; Table 5, E. coli (ATCC 25922), erythromycin sensitization): 1.5 µg/mL
FIC ([17]; Table 11, Escherichia coli ATCC 25922, erythromycin (by order)): 0.31
concentration required to inhibit bacterial growth with antibiotic ([17]; Table 11, Escherichia coli ATCC 25922, erythromycin (by order) at 0.5, 1.0 or 3.0 μg/mL): 0.38 µg/mL
MBC ([18]; Table 4, E. coli (ATCC 25922)): 4 µg/mL (≈ 5.03 µM)
MBC [18, 21]: 3.8 µg/mL (≈ 4.78 µM)

Compound: C[C@H](CCCN(C)Cc1ccccc1)[C@H]1CC[C@H]2[C@@H]3[C@H](NC(=O)CCN)C[C@@H]4C[C@H](NC(=O)CCN)CC[C@]4(C)[C@H]3C[C@H](NC(=O)CCN)[C@]12C [Compound 210b]
b: concentration of cholic acid derivatives required to lower MIC of novobiocin to 1 μg/ML [3]: 40 µg/mL
a: concentration of cholic acid derivatives required to lower MIC of erythromycin to 1 μg/ML [4]: 15 µg/mL
MIC [5]: 100 µg/mL

Compound: C[C@H](CCCO)[C@H]1CC[C@H]2[C@@H]3[C@H](NC(=O)CN)C[C@@H]4C[C@H](NC(=O)CN)CC[C@]4(C)[C@H]3C[C@H](NC(=O)CN)[C@]12C [Compound 209a]
b: concentration of cholic acid derivatives required to lower MIC of novobiocin to 1 μg/ML [3]: 75 µg/mL
a: concentration of cholic acid derivatives required to lower MIC of erythromycin to 1 μg/ML [4]: 25 µg/mL
MIC [5]: >100 µg/mL
